Data taken from patent publication US10470987B2, “Process for stimulating hyaluronic acid synthesis” (TOMCAT INTERNATIONAL LIMITED, priority 2015, dated 2019).

System: has-2 expression
Experiment: has-2 expression in human skin fibroblasts by real time quantitative PCR, 6 hours incubation
Type: cell-based
Conditions: 2 μM, vs untreated
Description: Human skin fibroblast cells are spread in DMEM medium containing 10% of fetal bovine serum (FBS) and antibiotics (penicillin/streptomycin) and incubated until a 90% confluence is reached. The medium is removed and replaced by fresh medium comprising resveratrol (RSV) or resveratrol oligomers (OR) respectively. Table 1 below indicates the different conditions tested and concentrations used. [table] Human skin fibroblast cells are incubated for 6 hours at 37° C. under 5% CO2. The ARN extraction is made by using the ARN Omega extraction kit. 1 μg of ARN is used and retranscribed into complementary DNA using the ADNc Bio-Rad iScript™ synthesis kit followed by a real time quantitative PCR quantification. The PCR reactions have been carried out using Fast-Start™ DNA Master SYBR Green I real-time PCR kit (Roche Molecular Biochemicals). Each PCR has been carried out in a final volume of 20 μl containing 10 μl of SYBR Green mix 2× (Fast start DNA master SYBR green+Taq DNA polymerase), 2 μl of 10 μM primer mixture (finally 1 μM) and 8 μl of ADNc solution (50 ng). The primers used are described in table 2 below. [table]

## Oc1ccc(C=Cc2cc(O)cc(O)c2)cc1 [resveratrol, 3,5,4′-trihydroxystilbene]
  increase of has-2 expression by fibroblasts: 18%
  induction of has-2 expression by fibroblasts, factor: 1.18
